How the values were obtained:
[1] = tested on: 3T3-L1 pre adipocytes; test: Cell toxicity of compounds at various doses; type: cell-based
Protocol: For the following screens, compounds 1-5 were dissolved in DMSO. 3T3-L1 pre adipocytes were first exposed to different concentrations (5 μM, 10 μM, 20 μM, 50 μM and 100 μM) of the compounds to test for toxicity compared with DMSO control exposure. Exposure to other concentrations was followed until Day 5. Compound 2 was the most toxic at 20 μM on Day 5.

[2] = tested on: 3T3-L1 cells; test: Glucose uptake under basal and insulin stimulated conditions (FIG. 2); type: cell-based; conditions: 24 hours exposure
Protocol: Next, glucose uptake by 3T3-L1 cells exposed to compounds 1-5 was determined at 5 μM concentration. Cells were exposed to compounds 1-5 for 24 hours and exposure to DMSO was used as the control group. 2-Deoxy glucose (2-DG) uptake was determined using the analog compounds without serum starving the cells prior to determining glucose uptake. As indicated in FIG. 1 glucose uptake in 3T3-L1 pre-adipocytes was determined by exposing cells to compounds 1-5 for 24 hours without serum starvation. All compounds show significant increase (p<0.05) in glucose uptake under basal conditions compared with the DMSO treated control cells. To confirm these observations glucose uptake was examined under basal and insulin stimulated conditions with cells exposed to compounds 1-5 for 24 hours.

[3] = 5 μM, Day 1, 3T3-L1 pre adipocytes
[4] = 5 μM, Day 2, 3T3-L1 pre adipocytes
[5] = 5 μM, Day 3, 3T3-L1 pre adipocytes
[6] = 5 μM, Day 4, 3T3-L1 pre adipocytes
[7] = 5 μM, Day 5, 3T3-L1 pre adipocytes
[8] = 10 μM, Day 1, 3T3-L1 pre adipocytes
[9] = 10 μM, Day 2, 3T3-L1 pre adipocytes
[10] = 10 μM, Day 3, 3T3-L1 pre adipocytes
[11] = 10 μM, Day 4, 3T3-L1 pre adipocytes
[12] = 10 μM, Day 5, 3T3-L1 pre adipocytes
[13] = 20 μM, Day 1, 3T3-L1 pre adipocytes
[14] = 20 μM, Day 2, 3T3-L1 pre adipocytes
[15] = 20 μM, Day 3, 3T3-L1 pre adipocytes
[16] = 20 μM, Day 4, 3T3-L1 pre adipocytes
[17] = 20 μM, Day 5, 3T3-L1 pre adipocytes
[18] = 50 μM, Day 1, 3T3-L1 pre adipocytes
[19] = 50 μM, Day 2, 3T3-L1 pre adipocytes
[20] = 100 μM, Day 1, 3T3-L1 pre adipocytes
[21] = 100 μM, Day 2, 3T3-L1 pre adipocytes

Row | Structure (SMILES) | Cell toxicity [1, 3] [%] | Cell toxicity [1, 4] | Cell toxicity [1, 5] | Cell toxicity [1, 6] | Cell toxicity [1, 7] | Cell toxicity [1, 8] | Cell toxicity [1, 9] | Cell toxicity [1, 10] | Cell toxicity [1, 11] | Cell toxicity [1, 12] | Cell toxicity [1, 13] | Cell toxicity [1, 14] | Cell toxicity [1, 15] | Cell toxicity [1, 16] | Cell toxicity [1, 17] | Cell toxicity [1, 18] | Cell toxicity [1, 19] | Cell toxicity [1, 20] | Cell toxicity [1, 21] | Glucose uptake under basal and insulin stimulated conditions [2] | also measured
1 | CC1(C)OB(c2ccc(NC(C#N)c3cc(-c4ccc(F)cc4)on3)cc2)OC1(C)C (stereo not drawn) [Compound 1] | 0 | 0-5% | 0-5% | 0-5% | ≧5% | 5-10% | 5-10% | 5-10% | 5-10% | 5-10% | 5-10% | ≧10% | ≧10% | 10-15% | 10-15% | 30-40% | 90-95% | >90% | 95-100% |  | 
2 | CC1(C)OB(c2ccc(NC(C#N)c3cc(-c4ccccc4)on3)cc2)OC1(C)C (stereo not drawn) [Compound 2] | 0 | 0-5% | 0-5% | 10-20% | 10-20% | 5-10% | >10% | ≧10% | 30-40% | ≧40% | >10% | 20-30% | 40-50% | 60-70% | 70-80% | 30-40% | 95-100% | >90% | 95-100% |  | Toxicity (in words, ranking among compounds) [1, 17]: most toxic
3 | Cc1cc(C(C#N)Nc2ccc(B3OC(C)(C)C(C)(C)O3)cc2)no1 (stereo not drawn) [Compound 3] | 0 | 0-5% | 0-5% | 0-5% | 0-5% | 0-5% | >5% | ≧10% | ≧10% | ≧10% | 5-10% | 15-20% | >20% | 20-30% | ≧30% | 15-20% | 90-95% | 60-70% | 95-100% | most significant increase | 
4 | N#CC(Nc1ccc([B-](F)(F)F)cc1)c1cc(-c2ccc(F)cc2)on1 (stereo not drawn) [Compound 4] | 0 | 0-5% | 0-5% | 0-5% | 0-5% | 0-5% | >5% | ≧10% | ≧10% | ≧10% | 5-10% | 10-15% | ≧15% | ≧15% | ≧15% | 30-40% | 90-95% | >90% | 95-100% | most significant increase | 
5 | N#CC(Nc1ccc([B-](F)(F)F)cc1)c1ccco1 (stereo not drawn) [Compound 5] | 0 | 0-5% | 0-5% | 0-5% | 0-5% | 0-5% | >5% | ≧10% | ≧10% | ≧10% | 5-10% | 10-15% | 10-15% | 10-15% | 10-15% | >15% | 90-95% | >90% | 95-100% | most significant increase | 
